Assay results: US20240376099A1, “COMPOUNDS AND COMPOSITIONS AS INHIBITORS OF ENDOSOMAL TOLL-LIKE RECEPTORS” (Novartis AG, priority 2016, published 2024)
pIC50: −log10 of the molar value.

Each molecule was assayed against T1, TLR8 (Homo sapiens, UniProt Q9NR97) (assay: huPBMC TLR8 Antagonist IL-6 TR-FRET Assay). Conditions: human PBMCs stimulated with ssRNA40 1 μg/ml (DOTAP), 14-16 hrs; IL-6 TR-FRET read-out.
T1 sequence (Q9NR97 27-1041): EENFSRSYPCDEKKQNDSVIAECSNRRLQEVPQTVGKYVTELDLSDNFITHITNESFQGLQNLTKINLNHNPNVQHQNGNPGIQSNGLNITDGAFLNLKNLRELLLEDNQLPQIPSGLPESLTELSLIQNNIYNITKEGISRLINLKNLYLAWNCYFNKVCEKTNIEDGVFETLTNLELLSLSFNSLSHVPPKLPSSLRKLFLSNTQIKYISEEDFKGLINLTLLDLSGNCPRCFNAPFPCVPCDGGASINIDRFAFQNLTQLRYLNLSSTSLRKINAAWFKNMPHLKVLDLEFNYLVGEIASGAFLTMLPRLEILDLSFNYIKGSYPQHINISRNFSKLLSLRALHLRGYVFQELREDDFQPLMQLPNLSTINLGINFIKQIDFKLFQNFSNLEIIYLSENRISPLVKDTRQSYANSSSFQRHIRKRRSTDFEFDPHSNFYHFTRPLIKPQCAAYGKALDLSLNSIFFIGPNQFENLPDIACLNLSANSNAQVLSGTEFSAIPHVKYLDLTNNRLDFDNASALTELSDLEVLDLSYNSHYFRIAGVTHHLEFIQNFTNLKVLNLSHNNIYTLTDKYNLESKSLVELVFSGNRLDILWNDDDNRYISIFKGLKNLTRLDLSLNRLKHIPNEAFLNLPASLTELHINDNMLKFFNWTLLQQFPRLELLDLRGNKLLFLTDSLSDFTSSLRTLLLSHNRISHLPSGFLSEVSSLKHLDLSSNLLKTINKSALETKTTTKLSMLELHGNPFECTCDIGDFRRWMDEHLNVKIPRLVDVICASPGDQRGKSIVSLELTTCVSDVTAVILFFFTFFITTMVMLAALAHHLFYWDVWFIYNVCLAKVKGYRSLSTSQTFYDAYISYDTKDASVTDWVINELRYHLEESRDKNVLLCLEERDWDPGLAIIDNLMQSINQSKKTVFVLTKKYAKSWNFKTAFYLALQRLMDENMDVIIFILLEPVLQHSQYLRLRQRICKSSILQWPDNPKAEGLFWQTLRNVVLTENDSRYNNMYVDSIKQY
Type: cell-based
Set-up: Fresh blood was collected from normal human donors; endogenous in cells; host or cells: human PBMCs from fresh donor blood
Summary of the method: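 Human PBMCs from fresh donor blood (150,000 cells/well) stimulated 14–16 h at 37 °C with DOTAP-complexed ssRNA40 (final 1 μg/ml for TLR8, 10 μg/mL for TLR7) or ODN2216 (final 0.3 μM, TLR9), 0.25% DMSO, ten-point 1/3 compound dilutions. Supernatant IL-6 read by HTRF (TLR8); IFNα by IFNα2b AlphaLISA (TLR7/TLR9).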

**Q.** `Cc1cc(N2CCc3c(c(C)nn3CC34CCC(NC(=O)C5CNCCO5)(CC3)CC4)C2)c2cnn(C)c2n1` (stereo not drawn) [compound 125, N-(4-((5-(1,6-dimethyl-1H-pyrazolo[3,4-b]pyridin-4-yl)-3-methyl-4,5,6,7-tetrahydro-1H-pyrazolo[4,3-c]pyridin-1-yl)methyl)bicyclo[2.2.2]octan-1-yl)morpholine-2-carboxamide] was tested. Which pIC50 did it give?
**A.** 7.37

**Q.** With `CCNCCC(=O)NC12CCC(Cn3nc(C)c4c3CCN(c3cc(C)nc5c3cnn5C)C4)(CC1)CC2` [compound 126, N-(4-((5-(1,6-dimethyl-1H-pyrazolo[3,4-b]pyridin-4-yl)-3-methyl-4,5,6,7-tetrahydro-1H-pyrazolo[4,3-c]pyridin-1-yl)methyl)bicyclo[2.2.2]octan-1-yl)-3-(ethylamino)propanamide] as the molecule, how does the pIC50 read?
**A.** 6.82

**Q.** With `CCNC12CCC(Cn3nc(C)c4c3CCN(c3ccnc(-c5ccccc5)c3)C4)(CC1)CC2` [compound 127, N-ethyl-4-((3-methyl-5-(2-phenylpyridin-4-yl)-4,5,6,7-tetrahydro-1H-pyrazolo[4,3-c]pyridin-1-yl)methyl)bicyclo[2.2.2]octan-1-amine] as the molecule, how does the pIC50 read?
**A.** 5.85

**Q.** With `Cc1cc(N2CCc3c(c(C)nn3CC34CCC(N5CCOC[C@@H]5C)(CC3)CC4)C2)c2cnn(C)c2n1` [compound 128, (S)-4-(4-((5-(1,6-dimethyl-1H-pyrazolo[3,4-b]pyridin-4-yl)-3-methyl-4,5,6,7-tetrahydro-1H-pyrazolo[4,3-c]pyridin-1-yl)methyl)bicyclo[2.2.2]octan-1-yl)-3-methylmorpholine] as the molecule, how does the pIC50 read?
**A.** 7.89

**Q.** With `Cc1cc(N2CCc3c(c(C)nn3CC34CCC(N5CCOC[C@H]5C)(CC3)CC4)C2)c2cnn(C)c2n1` [compound 129, (R)-4-(4-((5-(1,6-dimethyl-1H-pyrazolo[3,4-b]pyridin-4-yl)-3-methyl-4,5,6,7-tetrahydro-1H-pyrazolo[4,3-c]pyridin-1-yl)methyl)bicyclo[2.2.2]octan-1-yl)-3-methylmorpholine] as the molecule, how does the pIC50 read?
**A.** 7.92

**Q.** With `COCCNC12CCC(Cn3nc(C)c4c3CCN(c3ccnc(-c5ccccc5)c3)C4)(CC1)CC2` [compound 130, N-(2-methoxyethyl)-4-((3-methyl-5-(2-phenylpyridin-4-yl)-4,5,6,7-tetrahydro-1H-pyrazolo[4,3-c]pyridin-1-yl)methyl)bicyclo[2.2.2]octan-1-amine] as the molecule, how does the pIC50 read?
**A.** 5.55

**Q.** `Cc1cc(N2CCc3c(c(C)nn3CC34CCC(NC(=O)C5CNC5)(CC3)CC4)C2)c2cnn(C)c2n1` [compound 131, N-(4-((5-(1,6-dimethyl-1H-pyrazolo[3,4-b]pyridin-4-yl)-3-methyl-4,5,6,7-tetrahydro-1H-pyrazolo[4,3-c]pyridin-1-yl)methyl)bicyclo[2.2.2]octan-1-yl)azetidine-3-carboxamide] was tested. Which pIC50 did it give?
**A.** 6.44

**Q.** How did the pIC50 turn out when `CCN(C)CC(=O)NC12CCC(Cn3nc(C)c4c3CCN(c3cc(C)nc5c3cnn5C)C4)(CC1)CC2` [compound 132, N-(4-((5-(1,6-dimethyl-1H-pyrazolo[3,4-b]pyridin-4-yl)-3-methyl-4,5,6,7-tetrahydro-1H-pyrazolo[4,3-c]pyridin-1-yl)methyl)bicyclo[2.2.2]octan-1-yl)-2-(ethyl(methyl)amino)acetamide] was run?
**A.** 8.10

**Q.** With `[2H]C([2H])([2H])N(CC(=O)NC12CCC(Cn3nc(C)c4c3CCN(c3cc(C)nc5c3cnn5C)C4)(CC1)CC2)C([2H])([2H])[2H]` [compound 134, 2-(bis(trideuteromethyl)amino)-N-(4-((5-(1,6-dimethyl-1H-pyrazolo[3,4-b]pyridin-4-yl)-3-methyl-4,5,6,7-tetrahydro-1H-pyrazolo[4,3-c]pyridin-1-yl)methyl)bicyclo[2.2.2]octan-1-yl)acetamide] as the molecule, how does the pIC50 read?
**A.** 7.03

**Q.** `Cc1cc(N2CCc3c(c(C)nn3CC34CCC(NCC5(CO)COC5)(CC3)CC4)C2)c2cnn(C)c2n1` [compound 137, (3-(((4-((5-(1,6-dimethyl-1H-pyrazolo[3,4-b]pyridin-4-yl)-3-methyl-4,5,6,7-tetrahydro-1H-pyrazolo[4,3-c]pyridin-1-yl)methyl)bicyclo[2.2.2]octan-1-yl)amino)methyl)oxetan-3-yl)methanol] was tested. Which pIC50 did it give?
**A.** 7.17

**Q.** With `CCn1ncc2c(N3CCc4c(c(C)nn4CC45CCC(NC(=O)[C@@H]6COCCN6)(CC4)CC5)C3)cc(C)nc21` [compound 141, (S)-N-(4-((5-(1-ethyl-6-methyl-1H-pyrazolo[3,4-b]pyridin-4-yl)-3-methyl-4,5,6,7-tetrahydro-1H-pyrazolo[4,3-c]pyridin-1-yl)methyl)bicyclo[2.2.2]octan-1-yl)morpholine-3-carboxamide] as the molecule, how does the pIC50 read?
**A.** 5.64

**Q.** `CNCCC(=O)NC12CCC(Cn3nc(C)c4c3CCN(c3cc(C)nc5c3cnn5C)C4)(CC1)CC2` [compound 142, N-(4-((5-(1,6-dimethyl-1H-pyrazolo[3,4-b]pyridin-4-yl)-3-methyl-4,5,6,7-tetrahydro-1H-pyrazolo[4,3-c]pyridin-1-yl)methyl)bicyclo[2.2.2]octan-1-yl)-3-(methylamino)propanamide] was tested. Which pIC50 did it give?
**A.** 6.03

**Q.** `Cc1cc(N2CCc3c(c(C)nn3CC34CCC(NC5CCC5)(CC3)CO4)C2)c2cnn(C)c2n1` [compound 143, N-cyclobutyl-1-((5-(1,6-dimethyl-1H-pyrazolo[3,4-b]pyridin-4-yl)-3-methyl-4,5,6,7-tetrahydro-1H-pyrazolo[4,3-c]pyridin-1-yl)methyl)-2-oxabicyclo[2.2.2]octan-4-amine] was tested. Which pIC50 did it give?
**A.** 6.16

**Q.** `Cc1nn(CC23CCC(NC4CCC4)(CC2)CC3)c2c1CN(c1ccnc(-c3ccccc3)c1)CC2` [compound 144, N-cyclobutyl-4-((3-methyl-5-(2-phenylpyridin-4-yl)-4,5,6,7-tetrahydro-1H-pyrazolo[4,3-c]pyridin-1-yl)methyl)bicyclo[2.2.2]octan-1-amine] was tested. Which pIC50 did it give?
**A.** 6.98

**Q.** `Cc1cc(N2CCc3c(c(C)nn3CC34CCC(NC(=O)OC(C)(C)C)(CC3)C4)C2)c2cnn(C)c2n1` [compound 148, tert-butyl (4-((5-(1,6-dimethyl-1H-pyrazolo[3,4-b]pyridin-4-yl)-3-methyl-4,5,6,7-tetrahydro-1H-pyrazolo[4,3-c]pyridin-1-yl)methyl)bicyclo[2.2.1]heptan-1-yl)carbamate] was tested. Which pIC50 did it give?
**A.** < 5.00
